Assay results as given in US6833372B2, “Non-peptide GnRH agents, Pharmaceutical compositions, and methods for their use” (Pfizer, Inc., priority 2002, dated 2004).
Like-named read-outs stand apart in the source and are kept apart here.

Experiments:
Rat plasma % remain = type: in vitro ADME
[1] = In vitro metabolism: disappearance of parent compound in dog liver microsomes; type: in vitro ADME; conditions: 5 uM compound, 30 minutes 37° C.
Description: (§1) Human, rat, dog, and monkey liver microsomes were isolated by differential centrifugation. Specimens of human liver were obtained from the International Institute for the Advancement of Medicine (Scranton, Pa.). The disappearance of the parent compound was studied in a mixture containing 5 uM compound, 0.5 mg/ml microsomal protein, and 2 mM NADPH in 50 mM K phosphate buffer, pH 7.4. Samples were incubated for 30 minutes at 37° C. The reaction was terminated by the addition of acetonitrile and compounds analyzed by LC-MS as described above.

human GnRH receptors = target: T1, human GnRH receptors (Homo sapiens, UniProt P30968); experiment: Radioligand binding: inhibition of 125I-GnRH-A binding to human GnRH receptor membranes; conditions: HEK 293 cell membranes
T1 construct: expressed in transfected cells; host or cells: HEK 293 cells, stably transfected; membranes
T1 sequence (P30968 1-328): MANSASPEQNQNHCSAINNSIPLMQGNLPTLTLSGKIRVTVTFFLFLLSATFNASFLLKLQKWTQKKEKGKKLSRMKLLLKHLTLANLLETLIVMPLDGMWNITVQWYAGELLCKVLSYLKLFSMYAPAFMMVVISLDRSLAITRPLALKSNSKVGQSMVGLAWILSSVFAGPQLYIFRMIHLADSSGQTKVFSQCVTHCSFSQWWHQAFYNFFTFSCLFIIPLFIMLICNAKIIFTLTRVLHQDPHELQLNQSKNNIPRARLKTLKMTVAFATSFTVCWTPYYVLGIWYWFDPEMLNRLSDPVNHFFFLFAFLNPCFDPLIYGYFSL
How it was run: (§2)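 Membranes from rat pituitaries, or HEK 293 cells stably expressing mouse or human receptor, incubated 1 hour at room temperature with ~0.04-0.06 nM radioligand (HEPES pH 7.4, EDTA, MgCl2, BSA) and competitor at 0.1-10,000 nM. Bound ligand collected by GF/C filtration and counted; Ki derived from IC50 by Cheng-Prusoff.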

[2] = Pharmacokinetics in rats (jugular vein cannula, plasma LC-MS); type: in vivo, Rat; conditions: for Cmax / half-life / Tmax: rat, plasma
Description: Rats (male or female, 200-225 g) were prepared with indwelling jugular vein cannula as described by Harms et al., Applied Physiol. 36:391-398 (1974), and allowed to recover overnight with free access to the standard vivarium chow and water. […] […] The blood samples were withdrawn at specific times, plasma was immediately separated and compound extracted with ethyl acetate. The samples were analyzed by LC-MS using 30-90% gradient of ACN in 50 mM ammonium acetate.
The pharmacokinetic parameters were calculated using WinNonlin software (Scientific Consulting Inc.). The bioavailability was calculated as AUCp.o./AUCi.v., where AUCp.o. and AUC i.v. are areas under the plasma concentration-time curve after oral and i.v. administration, respectively.

H S A = H S A (Homo sapiens, UniProt P02768); experiment: H S A column α; type: in vitro ADME
[3] = Solubility at pH2 and pH6; type: physicochemical
[4] = In vitro metabolism: disappearance of parent compound in rat liver microsomes (male, female); type: in vitro ADME; conditions: 5 uM compound, 30 minutes 37° C.; for Fem. Rat (FR) % rem. 30′: female rat liver microsomes; for Male Rat (MR) % rem. 30′: male rat liver microsomes
Description: as §1

[5] = In vitro metabolism: disappearance of parent compound in human liver microsomes; type: in vitro ADME; conditions: 5 uM compound, 0.5 mg/ml protein, 2 mM NADPH, 30 minutes 37° C.
Description: as §1

rat GnRH receptor = target: T2, rat GnRH receptor (Rattus norvegicus, UniProt P30969); experiment: Radioligand binding: inhibition of 125I-GnRH-A binding to rat GnRH receptor (rat pituitary membranes); conditions: read-out: Ki (nM), Inhibition Binding of 125I-GnRH-A to GnRH Receptors
T2 construct: or rat pituitaries (Pel Freez Biologicals, Rogers, Ark.) were homogenized; tissue Pel Freez Biologicals; host or cells: rat pituitaries (membrane preparation)
T2 sequence (P30969 1-327): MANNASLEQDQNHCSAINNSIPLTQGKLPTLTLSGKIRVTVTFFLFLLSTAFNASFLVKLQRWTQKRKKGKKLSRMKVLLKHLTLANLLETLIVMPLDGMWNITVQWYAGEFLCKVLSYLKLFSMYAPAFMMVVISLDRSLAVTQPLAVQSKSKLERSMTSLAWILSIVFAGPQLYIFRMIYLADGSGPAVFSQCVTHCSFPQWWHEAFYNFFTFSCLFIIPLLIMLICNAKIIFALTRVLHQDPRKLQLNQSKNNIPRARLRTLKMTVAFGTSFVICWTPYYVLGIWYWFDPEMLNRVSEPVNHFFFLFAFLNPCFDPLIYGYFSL
How it was run: as §2

[6] = In vitro metabolism: disappearance of parent compound in monkey liver microsomes; type: in vitro ADME; conditions: 5 uM compound, 30 minutes 37° C.
Description: as §1

[7] = female rat, 10 mg/kg as 5 mg/ml solution in 10% DMSO, 10% cremophor, 80% saline (footnote 5)
[8] = female, po, 10 mg/kg, female rat, 10 mg/kg as 5 mg/ml solution in 10% DMSO, 10% cremophor, 80% saline (footnote 5), read-out: FR Cmax
[9] = female, po, 10 mg/kg, female rat, 10 mg/kg as 5 mg/ml solution in 10% DMSO, 10% cremophor, 80% saline (footnote 5), read-out: FR T1/2 hr (converted)
[10] = female, po, 10 mg/kg, female rat, 10 mg/kg as 5 mg/ml solution in 10% DMSO, 10% cremophor, 80% saline (footnote 5), read-out: FR Tmax hr
[11] = pH 6, aqueous buffer, pH6, read-out: Solubility μg/ml pH6

Chain of H S A (P02768 25-609): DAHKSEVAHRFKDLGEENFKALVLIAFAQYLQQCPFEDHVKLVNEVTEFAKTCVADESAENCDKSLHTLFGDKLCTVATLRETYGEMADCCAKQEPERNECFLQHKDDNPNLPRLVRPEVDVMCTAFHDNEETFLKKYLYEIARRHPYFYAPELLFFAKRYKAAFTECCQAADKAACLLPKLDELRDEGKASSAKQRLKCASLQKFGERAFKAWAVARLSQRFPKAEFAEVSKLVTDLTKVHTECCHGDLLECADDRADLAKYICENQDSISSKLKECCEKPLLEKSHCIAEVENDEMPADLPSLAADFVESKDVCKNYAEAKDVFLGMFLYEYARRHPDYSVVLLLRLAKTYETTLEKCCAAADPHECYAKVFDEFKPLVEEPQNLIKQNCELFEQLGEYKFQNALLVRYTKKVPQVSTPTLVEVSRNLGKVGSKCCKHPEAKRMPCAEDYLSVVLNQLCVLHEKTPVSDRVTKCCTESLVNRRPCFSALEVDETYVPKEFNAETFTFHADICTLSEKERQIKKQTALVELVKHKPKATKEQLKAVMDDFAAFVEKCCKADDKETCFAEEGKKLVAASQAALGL

Rat plasma % remain (Rat plasma % remain) [%] | Dog % rem. 30′ [1] [%] | Ki (human GnRH receptors) [nM] | FR Fp.o. [2, 7] [%^5] | Cmax [2, 8] [nM] | half-life [2, 9] [h] | Tmax [2, 10] [h] | H S A column α (H S A) | solubility [3, 11] [µg/mL] | Fem. Rat (FR) % rem. 30′ [4] [%] | Male Rat (MR) % rem. 30′ [4] [%] | Human % rem. 30′ [5] [%] | Ki (rat GnRH receptor) [nM] | Monkey % rem. [6] [%] | MR Fp.o. ([2]; male rat, male rats dosed orally at 50 mg/kg) [%] | Cmax ([2]; male, oral, 50 mg/kg, male rat, male rats dosed orally at 50 mg/kg, read-out: MR Cmax) [nM] | half-life ([2]; male, oral, 50 mg/kg, male rat, male rats dosed orally at 50 mg/kg, read-out: MR T1/2 hr (converted)) [h] | Tmax ([2]; male, oral, 50 mg/kg, male rat, male rats dosed orally at 50 mg/kg, read-out: MR Tmax hr) [h] | solubility ([3]; pH 2, simulated gastric fluid, pH2, read-out: Solubility μg/ml pH2) [µg/mL] | SMILES
100 | 52 | 1.6 | 2 | 100 | 1.2 | 1 | 8 | > 15 | 81 | 20 | 82 | 2.1 | 22 | – | – | – | – | – | COc1nc(Nc2ccccc2)nc(OC)c1NC(=O)c1ccc(Cc2cc3c(cc2C)C(C)(C)OC3(C)C)o1 [Example D1, 5-(1,1,3,3,6-Pentamethyl-1,3-dihydro-isobenzofuran-5-ylmethyl)-furan-2-carboxylic Acid (4,6-dimethoxy-2-phenylamino-pyrimidin-5-yl)-amide]
– | 98 | 1.5 | – | – | – | – | 2 | > 30 | 95 | 79 | 80 | 0.84 | 30 | 34 | 700 | 7 | 4 | > 30 | COc1nc(NCCN2CCCC2)nc(OC)c1NC(=O)c1ccc(Cc2cc3c(cc2C)C(C)(C)OC3(C)C)o1 [Example D5]
100 | 91 | 6 | 30 | 500 | 4.1 | 2 | 2 | – | 95 | 91 | 91 | 2.2 | 16 | – | – | – | – | – | CCN(CC)CCNc1nc(OC)c(NC(=O)c2ccc(Cc3cc4c(cc3C)C(C)(C)OC4(C)C)o2)c(OC)n1 [Example D7, N-(2-{[2-(Diethylamino)ethyl]amino}-4,6-dimethoxypyrimidin-5-yl)-5-[(1,1,3,3,6-pentamethyl-1,3-dihydro-2-benzofuran-5-yl)methyl]-2-furamide]
100 | 49 | 6 | – | – | – | – | 3 | – | 84 | 58 | 73 | 31 | 4 | – | – | – | – | – | COc1nc(N(C)C)nc(OC)c1NC(=O)c1ccc(Cc2cc3c(cc2C)C(C)(C)OC3(C)C)o1 [Example D8, N-[2-(Dimethylamino)-4,6-dimethoxypyrimidin-5-yl]-5-[(1,1,3,3,6-pentamethyl-1,3-dihydro-2-benzofuran-5-yl)methyl]-2-furamide]
100 | 100 | 3 | 57 | 800 | 4.3 | 2 | 2 | – | 100 | 80 | 89 | 0.54 | 44 | – | – | – | – | – | COc1nc(NCCCN(C)C)nc(OC)c1NC(=O)c1ccc(Cc2cc3c(cc2C)C(C)(C)OC3(C)C)o1 [Example D9, N-(2-{[3-(Dimethylamino)propyl]amino}-4,6-dimethoxypyrimidin-5-yl)-5-[(1,1,3,3,6-pentamethyl-1,3-dihydro-2-benzofuran-5-yl)methyl]-2-furamide]
– | 29 | 0.65 | – | – | – | – | 10 | – | 24 | 23 | 45 | 0.2 | 42 | – | – | – | – | – | COc1nc(NCCCNCCCN)nc(OC)c1NC(=O)c1ccc(Cc2cc3c(cc2C)C(C)(C)OC3(C)C)o1 [Example D17, N-[2-({3-[(3-Aminopropyl)amino]propyl}amino)-4,6-dimethoxypyrimidin-5-yl}-5-[(1,1,3,3,6-pentamethyl-1,3-dihydro-2-benzofuran-5-yl)methyl]-2-furamide]
92 | 70 | 1.7 | 10 | 200 | 4.1 | 2 | >30 | – | 92 | 80 | 79 | 0.9 | 0 | – | – | – | – | – | COc1nc(NCCCN2CCOCC2)nc(OC)c1NC(=O)c1ccc(Cc2cc3c(cc2Cl)C(C)(C)CCC3(C)C)o1 [Example G1, 5-(3-Chloro-5,5,8,8-tetramethyl-5,6,7,8-tetrahydro-naphthalen-2-ylmethyl)-furan-2-carboxylic acid[4,6-dimethoxy-2-(3-morpholin-4-yl-propylamino)-pyrimidin-5-yl]-amide]
